Patent US8791131B2, “Imidazo[1,5]naphthyridine compounds, their pharmaceutical use and compositions” (Pfizer Inc., priority 2008, dated 2014)
Where two headings read alike, the source gives them in different places.

What was measured:
[1] = system: PI3-K (phosphorylation of AKT at serine 473) in BT20 cells; experiment: PI3-Kα cellular assay (phospho-AKT Ser473 ELISA in BT20 cells); conditions: Homo sapiens, BT-20, 1 h;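 further: lysates read by ELISA with TMB colour at 450 nm, cells given 0.5% DMSO vehicle serve as positive control and cell-free wells as negative control, duplicate wells per concentration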
mTOR [2] = target: T1, mTOR (Homo sapiens (Human), UniProt P42345); experiment: biochemical
PI3-Kα = PI3-Kα (Mus musculus (Mouse), UniProt P42337); experiment: PI3-Kα biochemical assay (in vitro kinase assay, fluorescence polarization); conditions: for Ki: read-out: PI3Ka Ki; for PI3Ka Ki: Ki calculated from IC50, [ATP]=30 uM, Km=25 uM;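 on all read-outs here: Insect-cell-expressed mouse p110/p85 complex converting PI(4,5)P2, product PI(3,4,5)P3 detected by displacing TAMRA-tagged PI(3,4,5)P3 from Grip1 PH domain, lower polarization means more product, room temperature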
mTOR [3] = target: T1, mTOR
[4] = read-out: S473 pAKT 0.5% FBS IC50 (μM)
[5] = read-out: S473 pAKT 10% FBS IC50 (μM)

T1 sequence (P42345 2156-2469): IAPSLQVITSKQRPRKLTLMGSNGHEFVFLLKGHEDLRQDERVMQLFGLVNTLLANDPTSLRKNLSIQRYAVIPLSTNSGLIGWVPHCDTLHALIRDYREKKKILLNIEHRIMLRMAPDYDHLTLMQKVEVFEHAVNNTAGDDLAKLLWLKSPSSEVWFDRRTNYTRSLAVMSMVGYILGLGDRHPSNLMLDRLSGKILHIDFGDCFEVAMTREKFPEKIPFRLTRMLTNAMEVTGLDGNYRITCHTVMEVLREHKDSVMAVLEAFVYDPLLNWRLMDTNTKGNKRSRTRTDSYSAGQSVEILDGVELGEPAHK
PI3-Kα, sequence (P42337 whole entry, the tested form may be a part): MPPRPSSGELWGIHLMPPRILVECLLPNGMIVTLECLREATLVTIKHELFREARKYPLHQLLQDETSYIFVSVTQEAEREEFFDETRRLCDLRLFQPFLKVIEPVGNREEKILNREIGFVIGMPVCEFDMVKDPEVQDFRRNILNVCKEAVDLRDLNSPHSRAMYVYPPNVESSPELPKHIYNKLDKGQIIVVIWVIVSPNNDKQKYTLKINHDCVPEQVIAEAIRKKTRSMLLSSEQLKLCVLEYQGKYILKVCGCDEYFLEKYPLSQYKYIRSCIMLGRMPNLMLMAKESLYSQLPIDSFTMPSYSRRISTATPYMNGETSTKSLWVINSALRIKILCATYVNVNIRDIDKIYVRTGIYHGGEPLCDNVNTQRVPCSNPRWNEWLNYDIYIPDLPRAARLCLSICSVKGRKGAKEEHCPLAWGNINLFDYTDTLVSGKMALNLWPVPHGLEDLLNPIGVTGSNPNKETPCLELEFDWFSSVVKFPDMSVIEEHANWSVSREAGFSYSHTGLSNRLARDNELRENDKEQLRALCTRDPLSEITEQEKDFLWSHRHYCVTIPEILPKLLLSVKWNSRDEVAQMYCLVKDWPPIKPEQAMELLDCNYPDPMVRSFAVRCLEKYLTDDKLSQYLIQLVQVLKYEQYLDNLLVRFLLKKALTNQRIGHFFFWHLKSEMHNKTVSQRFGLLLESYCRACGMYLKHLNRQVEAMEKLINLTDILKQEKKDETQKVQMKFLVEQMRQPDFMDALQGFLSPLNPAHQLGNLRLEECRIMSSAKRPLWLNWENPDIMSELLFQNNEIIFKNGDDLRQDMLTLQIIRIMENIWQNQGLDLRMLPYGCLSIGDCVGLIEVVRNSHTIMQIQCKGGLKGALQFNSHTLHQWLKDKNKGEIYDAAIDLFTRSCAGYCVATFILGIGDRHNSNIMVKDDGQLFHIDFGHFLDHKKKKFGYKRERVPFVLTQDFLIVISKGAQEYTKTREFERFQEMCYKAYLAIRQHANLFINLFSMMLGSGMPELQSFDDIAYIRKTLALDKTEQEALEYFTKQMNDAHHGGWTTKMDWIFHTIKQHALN
PI3-Kα, sequence (P26450 whole entry partner, the tested form may be a part): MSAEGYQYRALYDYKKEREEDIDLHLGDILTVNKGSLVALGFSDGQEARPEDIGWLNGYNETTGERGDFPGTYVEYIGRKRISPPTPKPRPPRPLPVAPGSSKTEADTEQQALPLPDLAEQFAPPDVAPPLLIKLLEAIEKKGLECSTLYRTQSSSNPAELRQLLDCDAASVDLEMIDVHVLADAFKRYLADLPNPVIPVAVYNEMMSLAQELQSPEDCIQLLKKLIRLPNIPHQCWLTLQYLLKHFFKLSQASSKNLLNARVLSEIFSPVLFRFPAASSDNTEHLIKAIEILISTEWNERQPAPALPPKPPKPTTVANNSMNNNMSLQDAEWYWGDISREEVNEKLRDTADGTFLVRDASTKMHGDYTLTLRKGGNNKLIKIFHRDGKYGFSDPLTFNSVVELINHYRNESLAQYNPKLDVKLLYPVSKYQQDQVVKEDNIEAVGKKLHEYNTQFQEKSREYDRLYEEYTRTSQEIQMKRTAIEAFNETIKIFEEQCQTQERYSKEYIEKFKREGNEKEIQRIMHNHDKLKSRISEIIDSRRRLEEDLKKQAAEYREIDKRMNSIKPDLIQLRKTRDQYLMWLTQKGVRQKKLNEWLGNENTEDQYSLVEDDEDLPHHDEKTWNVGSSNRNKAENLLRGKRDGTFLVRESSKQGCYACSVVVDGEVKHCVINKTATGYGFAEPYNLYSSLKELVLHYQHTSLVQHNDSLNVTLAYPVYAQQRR

In the case of `CC(C)(C#N)c1ccc(-n2c(=O)[nH]c3cnc4ccc(-c5cnc6ccccc6c5)nc4c32)cc1` [Compound 101, 2-methyl-2-[4-(2-oxo-8-quinolin-3-yl-2,3-dihydro-1H-imidazo[4,5-c]-1,5-naphthyridin-1-yl)phenyl]propanenitrile], the IC50 [1, 4] is reported as 0.00647 µM, the Ki (mTOR [2]) is reported as 3.63 nM and the Ki (PI3-Kα) is reported as 4.4 nM.

`Cn1c(=O)n(-c2ccc(C(C)(C)C#N)cc2)c2c3nc(-c4cnc5ccccc5c4)ccc3ncc21` [Compound 102, 2-methyl-2-[4-(3-methyl-2-oxo-8-quinolin-3-yl-2,3-dihydro-1H-imidazo[4,5-c]-1,5-naphthyridin-1-yl)phenyl]propanenitrile] was tested, and the IC50 [1, 4] was 0.00354 µM, the Ki (mTOR [2]) was 3.01 nM and the Ki (PI3-Kα) was 0.76 nM.

For `O=C(OCc1ccccc1)N1CCC(n2c(=O)[nH]c3cnc4ccc(-c5cnc6ccccc6c5)nc4c32)CC1` [Compound 115, benzyl4-(2-oxo-8-quinolin-3-yl-2,3-dihydro-1H-imidazo[4,5-c][1,5]naphthyridin-1-yl)piperidine-1-carboxylate], the IC50 [1, 4] was 0.0322 µM, the Ki (mTOR [2]) was 21.5 nM and the Ki (PI3-Kα) was 7.77 nM.

With `Cn1c(=O)n(C2CCN(C(=O)OCc3ccccc3)CC2)c2c3nc(-c4cnc5ccccc5c4)ccc3ncc21` [Compound 116, benzyl4-(3-methyl-2-oxo-8-quinolin-3-yl-2,3-dihydro-1H-imidazo[4,5-c][1,5]naphthyridin-1-yl)piperidine-1-carboxylate] the IC50 [1, 4] was 0.0134 µM, the Ki (mTOR [2]) was 6.53 nM and the Ki (PI3-Kα) was 2.91 nM.

Compound `Cn1c(=O)n(C2CCNCC2)c2c3nc(-c4cnc5ccccc5c4)ccc3ncc21` [Compound 118, 3-methyl-1-piperidin-4-yl-8-quinolin-3-yl-1,3-dihydro-2H-imidazo[4,5-c][1,5]naphthyridin-2-one] has a Ki (mTOR [2]) of 13.2 nM and a Ki (PI3-Kα) of 2.08 nM.

For `CC(=O)N1CCC(n2c(=O)n(C)c3cnc4ccc(-c5cnc6ccccc6c5)nc4c32)CC1` [Compound 120, 1-(1-acetylpiperidin-4-yl)-3-methyl-8-quinolin-3-yl-1,3-dihydro-2H-imidazo[4,5-c][1,5]naphthyridin-2-one], the IC50 [1, 4] was 0.00459 µM, the Ki (mTOR [2]) was 5.41 nM and the Ki (PI3-Kα) was 0.98 nM.

`Cn1c(=O)n([C@H]2CC[C@H](O)CC2)c2c3nc(-c4cnn(CCO)c4)ccc3ncc21` [Compound 164, 1-(trans-4-hydroxycyclohexyl)-8-[1-(2-hydroxyethyl)-1H-pyrazol-4-yl]-3-methyl-1,3-dihydro-2H-imidazo[4,5-c][1,5]naphthyridin-2-one] was tested, and the IC50 [1, 5] was 0.448 µM, the Ki (mTOR [2]) was 14 nM and the Ki (PI3-Kα) was 16.2 nM.

`Cc1ccc(-c2ccc3ncc4c(c3n2)n(C2CCN(C(N)=O)CC2)c(=O)n4C)cn1` [Compound 167, 4-[3-methyl-8-(6-methylpyridin-3-yl)-2-oxo-2,3-dihydro-1H-imidazo[4,5-c][1,5]naphthyridin-1-yl]piperidine-1-carboxamide] gave an IC50 [1, 5] of 0.112 µM, a Ki (mTOR [2]) of 1.28 nM and a Ki (PI3-Kα) of 1.93 nM.

Work on `CN(C)c1ccc(-c2ccc3ncc4c(c3n2)n([C@H]2CC[C@H](O)CC2)c(=O)n4C)cn1` [Compound 175, 8-[6-(dimethylamino)pyridin-3-yl]-1-(trans-4-hydroxycyclohexyl)-3-methyl-1,3-dihydro-2H-imidazo[4,5-c][1,5]naphthyridin-2-one] yielded an IC50 [1, 5] of 0.00526 µM, a Ki (mTOR [2]) of 1.8 nM and a Ki (PI3-Kα) of 0.666 nM.

`Cc1ccc(-c2ccc3ncc4c(c3n2)n(C2CCNCC2)c(=O)n4C)cn1` [Compound 177, 3-methyl-8-(6-methyl-pyridin-3-yl)-1-piperidin-4-yl-1,3-dihydro-1,3,5,9-tetraaza-cyclopenta[a]naphthalen-2-one] was tested, and the IC50 [1, 5] was 0.101 µM, the Ki (mTOR [2]) was 7.21 nM and the Ki (PI3-Kα) was 2.45 nM.

`CNC(=O)N1CCC(n2c(=O)n(C)c3cnc4ccc(-c5ccc(C)nc5)nc4c32)CC1` [Compound 181, N-methyl-4-[3-methyl-8-(6-methylpyridin-3-yl)-2-oxo-2,3-dihydro-1H-imidazo[4,5-c][1,5]naphthyridin-1-yl]piperidine-1-carboxamide] showed an IC50 [1, 5] of 0.0594 µM, a Ki (mTOR [2]) of 1.06 nM and a Ki (PI3-Kα) of 3.27 nM.

In the case of `CNC(=O)N1CCC(n2c(=O)n(C)c3cnc4ccc(-c5cnc(OC)nc5)nc4c32)CC1` [Compound 186, 4-[8-(2-methoxypyrimidin-5-yl)-3-methyl-2-oxo-2,3-dihydro-1H-imidazo[4,5-c][1,5]naphthyridin-1-yl]-N-methylpiperidine-1-carboxamide], the IC50 [1, 5] is reported as 0.0681 µM, the Ki (mTOR [2]) is reported as 3.06 nM and the Ki (PI3-Kα) is reported as 2.49 nM.

Work on `COc1ncc(-c2ccc3ncc4c(c3n2)n(C2CCN(C(=O)CO)CC2)c(=O)n4C)cn1` [Compound 189, 1-(1-glycoloylpiperidin-4-yl)-8-(2-methoxypyrimidin-5-yl)-3-methyl-1,3-dihydro-2H-imidazo[4,5-c][1,5]naphthyridin-2-one] yielded an IC50 [1, 5] of 0.0272 µM, a Ki (mTOR [2]) of 1.95 nM and a Ki (PI3-Kα) of 1.78 nM.

Compound `COc1ncc(-c2ccc3ncc4c(c3n2)n(C2CCN(CC(N)=O)CC2)c(=O)n4C)cn1` [Compound 190, 2-{4-[8-(2-methoxypyrimidin-5-yl)-3-methyl-2-oxo-2,3-dihydro-1H-imidazo[4,5-c][1,5]naphthyridin-1-yl]piperidin-1-yl}acetamide] has an IC50 [1, 5] of 0.0903 µM, a Ki (mTOR [2]) of 9.76 nM and a Ki (PI3-Kα) of 4.96 nM.

`CN[C@H]1CC[C@H](n2c(=O)n(C)c3cnc4ccc(-c5cnc6ccccc6c5)nc4c32)CC1` [Compound 193, 3-methyl-1-[trans-4-(methylamino)cyclohexyl]-8-quinolin-3-yl-1,3-dihydro-2H-imidazo[4,5-c][1,5]naphthyridin-2-one] showed an IC50 [1, 4] of 0.0404 µM, a Ki (mTOR [2]) of 13.1 nM and a Ki (PI3-Kα) of 1.61 nM.

Compound `Cn1c(=O)n([C@H]2CC[C@H](N)CC2)c2c3nc(-c4cnc5ccccc5c4)ccc3ncc21` [Compound 194, 1-(trans-4-aminocyclohexyl)-3-methyl-8-quinolin-3-yl-1,3-dihydro-2H-imidazo[4,5-c][1,5]naphthyridin-2-one] has an IC50 [1, 4] of 0.0464 µM, a Ki (mTOR [2]) of 7.91 nM and a Ki (PI3-Kα) of 2.3 nM.

With `CN(C)C(=O)CN1CCC(n2c(=O)n(C)c3cnc4ccc(-c5cnn(C)c5)nc4c32)CC1` [Compound 212, N,N-dimethyl-2-{4-[3-methyl-8-(1-methyl-1H-pyrazol-4-yl)-2-oxo-2,3-dihydro-1H-imidazo[4,5-c][1,5]naphthyridin-1-yl]piperidin-1-yl}acetamide] the IC50 [1, 5] was 0.248 µM, the Ki (mTOR [2]) was 27.9 nM and the Ki (PI3-Kα) was 14.7 nM.

`CC(=O)N1CCC(n2c(=O)n(C)c3cnc4ccc(-c5cccc6ncccc56)nc4c32)CC1` [Compound 249, 1-(1-acetylpiperidin-4-yl)-3-methyl-8-quinolin-5-yl-1,3-dihydro-2H-imidazo[4,5-c][1,5]naphthyridin-2-one] was tested, and the IC50 [1, 5] was 0.194 µM, the Ki (mTOR [2]) was 442 nM and the Ki (PI3-Kα) was 4.51 nM.

`Cn1c(=O)n([C@H]2CC[C@H](O)CC2)c2c3nc(-c4ccc5[nH]ncc5c4)ccc3ncc21` [Compound 267, 1-(trans-4-hydroxycyclohexyl)-8-(1H-indazol-5-yl)-3-methyl-1,3-dihydro-2H-imidazo[4,5-c][1,5]naphthyridin-2-one] was tested, and the IC50 [1, 5] was 0.0205 µM, the Ki (mTOR [3]) was 0.359 nM and the “PI3Ka Ki” value (PI3-Kα) was 0.145 nM.

`COCCn1c(=O)n(C)c2cnc3ccc(-c4ccc(OC)nc4)nc3c21` [Compound 270, 1-(2-methoxyethyl)-8-(6-methoxypyridin-3-yl)-3-methyl-1,3-dihydro-2H-imidazo[4,5-c][1,5]naphthyridin-2-one] was tested, and the IC50 [1, 5] was 0.207 µM, the Ki (mTOR [3]) was 7.13 nM and the “PI3Ka Ki” value (PI3-Kα) was 13.5 nM.

For `COc1ccc(-c2ccc3ncc4c(c3n2)n(C2CCN(C(C)=O)CC2)c(=O)n4C)cc1` [Compound 274, 1-(1-acetylpiperidin-4-yl)-8-(4-methoxyphenyl)-3-methyl-1,3-dihydro-2H-imidazo[4,5-c][1,5]naphthyridin-2-one], the IC50 [1, 5] was 0.0113 µM, the Ki (mTOR [3]) was 14.6 nM and the “PI3Ka Ki” value (PI3-Kα) was 7.71 nM.

For `COc1cccc(-c2ccc3ncc4c(c3n2)n(C2CCN(C(=O)[C@H](C)O)CC2)c(=O)n4C)c1` [Compound 275, 1-{1-[(2S)-2-hydroxypropanoyl]piperidin-4-yl}-8-(3-methoxyphenyl)-3-methyl-1,3-dihydro-2H-imidazo[4,5-c][1,5]naphthyridin-2-one], the IC50 [1, 5] was 0.0344 µM, the Ki (mTOR [3]) was 8.51 nM and the “PI3Ka Ki” value (PI3-Kα) was 2.01 nM.

With `COc1cccc(-c2ccc3ncc4c(c3n2)n(C2CCN(C(=O)CO)CC2)c(=O)n4C)c1` [Compound 276, 1-(1-glycoloylpiperidin-4-yl)-8-(3-methoxyphenyl)-3-methyl-1,3-dihydro-2H-imidazo[4,5-c][1,5]naphthyridin-2-one] the IC50 [1, 5] was 0.0304 µM, the Ki (mTOR [3]) was 10.2 nM and the “PI3Ka Ki” value (PI3-Kα) was 2.22 nM.

With `COc1cccc(-c2ccc3ncc4c(c3n2)n(C2CCN(C(C)=O)CC2)c(=O)n4C)c1` [Compound 277, 1-(1-acetylpiperidin-4-yl)-8-(3-methoxyphenyl)-3-methyl-1,3-dihydro-2H-imidazo[4,5-c][1,5]naphthyridin-2-one] the IC50 [1, 5] was 0.0577 µM, the Ki (mTOR [3]) was 10.3 nM and the “PI3Ka Ki” value (PI3-Kα) was 3.04 nM.
